Measured values reported in patent US20140011799A1 (Bristol-Myers Squibb Company, priority 2012, published 2014).

Columns and labels:
Endothelial lipase (EL) = target: T1, Endothelial lipase (EL) (Homo sapiens, UniProt Q9Y5X9); test: Endothelial lipase (EL) enzymatic assay, fluorescent substrate A10070 in DMPG vesicles; format: biochemical; details: EL from conditioned media of HT-1080 cells; compound preincubated 30 min at 37° C; read-out: EL IC50
T1 construct: HT-1080 cells that were transformed using RAGE technology (Athersys) to overexpress endogenous EL; endogenous in cells; conditioned medium used
T1 sequence (Q9Y5X9 21-500): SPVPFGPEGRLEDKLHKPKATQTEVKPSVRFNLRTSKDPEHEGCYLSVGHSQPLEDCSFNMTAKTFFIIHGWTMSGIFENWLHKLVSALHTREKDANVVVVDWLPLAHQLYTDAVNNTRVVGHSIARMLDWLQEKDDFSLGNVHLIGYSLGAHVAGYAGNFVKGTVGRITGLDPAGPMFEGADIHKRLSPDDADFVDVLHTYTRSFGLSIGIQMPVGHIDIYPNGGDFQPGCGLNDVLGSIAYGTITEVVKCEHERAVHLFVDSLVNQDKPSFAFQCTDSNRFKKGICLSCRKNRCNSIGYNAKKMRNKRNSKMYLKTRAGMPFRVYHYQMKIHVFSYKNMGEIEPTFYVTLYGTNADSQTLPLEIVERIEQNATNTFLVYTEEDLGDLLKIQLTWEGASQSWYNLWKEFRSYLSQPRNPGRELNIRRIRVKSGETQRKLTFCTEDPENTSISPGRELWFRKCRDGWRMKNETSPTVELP
In short: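 EL from conditioned medium of HT-1080 cells engineered to overexpress endogenous EL; HL partially purified from conditioned medium of HL-overexpressing COS cells. Enzyme preincubated with compound 30 min at 37° C in 50 mM HEPES pH 8.0, 50 mM NaCl, 1 mM CaCl2; DMPG vesicles carrying FRET substrate (0.11 mole fraction) then added.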

hepatic lipase (HL) = target: T2, hepatic lipase (HL) (Homo sapiens, UniProt P11150); test: Hepatic lipase (HL) enzymatic assay, fluorescent substrate A10070 in DMPG vesicles; format: biochemical; details: HL partially purified from conditioned media of COS cells; compound preincubated 30 min at 37° C; read-out: HL IC50
T2 construct: made in house; host or cells: COS cells (conditioned medium, partially purified)
T2 sequence (P11150 23-499): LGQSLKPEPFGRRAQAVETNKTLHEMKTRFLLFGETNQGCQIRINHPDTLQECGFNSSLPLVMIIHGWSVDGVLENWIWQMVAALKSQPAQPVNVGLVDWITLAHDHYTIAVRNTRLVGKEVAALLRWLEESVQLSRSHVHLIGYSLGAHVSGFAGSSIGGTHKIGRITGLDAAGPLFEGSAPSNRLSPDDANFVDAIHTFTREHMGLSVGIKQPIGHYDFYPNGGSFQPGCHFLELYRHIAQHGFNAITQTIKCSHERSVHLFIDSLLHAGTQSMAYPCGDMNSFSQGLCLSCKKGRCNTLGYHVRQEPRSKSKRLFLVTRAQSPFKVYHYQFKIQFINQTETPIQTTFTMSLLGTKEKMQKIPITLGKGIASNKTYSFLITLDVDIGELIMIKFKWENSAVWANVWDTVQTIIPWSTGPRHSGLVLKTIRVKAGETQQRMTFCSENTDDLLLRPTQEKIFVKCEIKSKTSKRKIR
Protocol: Endothelial lipase (EL) and hepatic lipase (HL) activities were measured using a fluorescent substrate, A10070, (Invitrogen, CA) doped into an artificial vesicle containing DMPG (Avanti Polar Lipids) as the excipient. Vesicles were prepared by combining 571 μL of 29 mM DMPG in a 1:1 mixture of MeOH and CHCl3 with 2000 μL of 1 mM A10070 in a 1:1 mixture of MeOH and CHCl3. The mixture was dried under nitrogen in multiple vials then resuspended in 20 mL total volume of 50 mM HEPES pH 8.0 buffer containing 50 mM NaCl and 0.2 mM EDTA. The sample was allowed to sit at room temperature for 15 min and then was sonicated 3×4 mins on ice with a Branson Sonicator using duty cycle 1. This preparation provides vesicles with a mole fraction of 0.11 for the FRET substrate.
The enzymatic assay was measured using 384-well white Optiplates. Each well contained 20 μL of assay buffer (50 mM HEPES pH 8.0, 50 mM NaCl and 1 mM CaCl2) and 0.25 μL of a DMSO solution containing a compound of interest. EL or HL (10 μL) was added and allowed to incubate with the compound for 30 min at 37° C. The source of EL was conditioned media obtained from HT-1080 cells that were transformed using RAGE technology (Athersys) to overexpress endogenous EL, and HL was partially purified from conditioned media obtained from COS cells overexpressing HL. The reaction was started by the addition of 10 μL of a 1:10 dilution of vesicles. The final total reaction volume was […]. The reaction rates were measured on a Gemini plate reader with an excitation wavelength of 490 nm and an emission wavelength of 530 nm. Readings were taken over a period of 60 minutes, and the slope between 300 and 900 secs of the readout was used to calculate the rate of the reaction.

| IC50 (Endothelial lipase (EL)) | IC50 (hepatic lipase (HL)) | Compound |
| --- | --- | --- |
| < 10 nM | 629 nM | CS(=O)(=O)C(c1nnc(C[C@@H]2NS(=O)(=O)NC2=O)o1)c1nc2ccc(-c3ccc(C(=O)N4CCOCC4)cc3)cc2s1 (stereo partly drawn) [Example 111, (4S)-4-((5-((methylsulfonyl) (6-(4-(4-morpholinylcarbonyl)phenyl)-1,3-benzothiazol-2-yl)methyl)-1,3,4-oxadiazol-2-yl)methyl)-1,2,5-thiadiazolidin-3-one 1,1-dioxide] |
| < 10 nM | < 10 nM | COC(=O)CCS(=O)(=O)C(c1nnc(CNS(N)(=O)=O)o1)c1nc2ccc(-c3cnn(C)c3)cc2s1 (centres unmarked) [Example 112, methyl 3-(((6-(1-methyl-1H-pyrazol-4-yl)-1,3-benzothiazol-2-yl)(5-((sulfamoylamino)methyl)-1,3,4-oxadiazol-2-yl)methyl)sulfonyl)propanoate] |
| < 10 nM | 220 nM | Cn1cc(-c2ccc3nc(C(c4nnc(CNS(N)(=O)=O)o4)S(C)(=O)=O)sc3c2)cn1 (centres unmarked) [Example 113, N-((5-((6-(1-methyl-1H-pyrazol-4-yl)-1,3-benzothiazol-2-yl)(methylsulfonyl)methyl)-1,3,4-oxadiazol-2-yl)methyl) sulfamide] |
| < 10 nM | 220 nM | CS(=O)(=O)C(c1nnc(CNS(N)(=O)=O)o1)c1nc2ccc(Br)cc2s1 (centres unmarked) [Example 114, N-((5-((6-bromo-1,3-benzothiazol-2-yl)(methylsulfonyl)methyl)-1,3,4-oxadiazol-2-yl)methyl) sulfamide] |
| 117 nM | > 25000 nM | COCCS(=O)(=O)C(c1nnc(CNS(=O)(=O)NC(=O)OC(C)(C)C)o1)c1nc2ccc(-c3cnn(C)c3)cc2s1 (centres unmarked) [Example 115, tert-butyl (((5-(((2-methoxyethyl)sulfonyl)(6-(1-methyl-1H-pyrazol-4-yl)-1,3-benzothiazol-2-yl)methyl)-1,3,4-oxadiazol-2-yl)methyl)sulfamoyl)carbamate] |
| < 10 nM | 143 nM | COCCS(=O)(=O)C(c1nnc(CNS(N)(=O)=O)o1)c1nc2ccc(-c3cnn(C)c3)cc2s1 (centres unmarked) [Example 116, N-((5-(((2-methoxyethyl)sulfonyl)(6-(1-methyl-1H-pyrazol-4-yl)-1,3-benzothiazol-2-yl)methyl)-1,3,4-oxadiazol-2-yl)methyl) sulfamide] |
| 24 nM | 230 nM | Cc1noc(C)c1-c1ccc2nc(C(c3nnc(CNS(N)(=O)=O)o3)S(C)(=O)=O)sc2c1 (centres unmarked) [Example 117, N-[(5-{[6-(3,5-dimethyl-1,2-oxazol-4-yl)-1,3-benzothiazol-2-yl](methylsulfonyl)methyl}-1,3,4-oxadiazol-2-yl)methyl] sulfuric diamide] |
| 18 nM | 396 nM | Cc1cc(-c2ccc3nc(C(c4nnc(CNS(N)(=O)=O)o4)S(C)(=O)=O)sc3c2)n(C)n1 (centres unmarked) [Example 118, N-[(5-{[6-(1,3-dimethyl-1H-pyrazol-5-yl)-1,3-benzothiazol-2-yl](methylsulfonyl)methyl}-1,3,4-oxadiazol-2-yl)methy] sulfuric diamide] |
| < 10 nM | < 10 nM | C=CCS(=O)(=O)C(c1nnc(CNS(N)(=O)=O)o1)c1nc2ccc(-c3ccccc3)cc2s1 (centres unmarked) [Example 120, N-((5-((allylsulfonyl)(6-phenyl-1,3-benzothiazol-2-yl)methyl)-1,3,4-oxadiazol-2-yl)methyl)sulfamide] |
| 147 nM | 6550 nM | CC(C)(C)OC(=O)NS(=O)(=O)NCc1nnc(C(c2nc3ccc(-c4cncnc4)cc3s2)S(=O)(=O)Cc2ccccc2)o1 (centres unmarked) [Example 121, tert-butyl (((5-((benzylsulfonyl)(6-(5-pyrimidinyl)-1,3-benzothiazol-2-yl)methyl)-1,3,4-oxadiazol-2-yl)methyl)sulfamoyl)carbamate] |
| < 10 nM | < 10 nM | CC(C)(C)OC(=O)NS(=O)(=O)NCc1nnc(C(c2nc3ccc(-c4ccc(Cl)cc4)cc3s2)S(=O)(=O)Cc2ccccc2)o1 (centres unmarked) [Example 123, tert-butyl (((5-((benzylsulfonyl)(6-(4-chlorophenyl)-1,3-benzothiazol-2-yl)methyl)-1,3,4-oxadiazol-2-yl)methyl)sulfamoyl)carbamate] |
| 48 nM | 37 nM | NS(=O)(=O)NCc1nnc(C(c2nc3ccc(Br)cc3s2)S(=O)(=O)Cc2ccccc2)o1 (centres unmarked) [Example 124, N-((5-((benzylsulfonyl)(6-bromo-1,3-benzothiazol-2-yl)methyl)-1,3,4-oxadiazol-2-yl)methyl)sulfamide] |
| < 10 nM | 103 nM | NS(=O)(=O)NCc1nnc(C(c2nc3ccc(-c4cncnc4)cc3s2)S(=O)(=O)Cc2ccccc2)o1 (centres unmarked) [Example 125, N-((5-((benzylsulfonyl)(6-(5-pyrimidinyl)-1,3-benzothiazol-2-yl)methyl)-1,3,4-oxadiazol-2-yl)methyl) sulfamide] |
| < 10 nM | < 10 nM | NS(=O)(=O)NCc1nnc(C(c2nc3ccc(-c4ccc(F)cc4)cc3s2)S(=O)(=O)Cc2ccccc2)o1 (centres unmarked) [Example 127, N-((5-((benzylsulfonyl)(6-(4-fluorophenyl)-1,3-benzothiazol-2-yl)methyl)-1,3,4-oxadiazol-2-yl)methyl) sulfamide] |
| < 10 nM | < 10 nM | NS(=O)(=O)NCc1nnc(C(c2nc3ccc(-c4ccc(C(F)(F)F)cc4)cc3s2)S(=O)(=O)Cc2ccccc2)o1 (centres unmarked) [Example 128, N-((5-((benzylsulfonyl)(6-(4-(trifluoromethyl)phenyl)-1,3-benzothiazol-2-yl)methyl)-1,3,4-oxadiazol-2-yl)methyl) sulfamide] |
| < 10 nM | 22 nM | CS(=O)(=O)C(c1nnc(CNS(N)(=O)=O)o1)c1nc2ccc(-c3ccc(C(=O)N4CCOCC4)cc3)cc2s1 (centres unmarked) [Example 130, N-((5-((methylsulfonyl)(6-(4-(4-morpholinylcarbonyl)phenyl)-1,3-benzothiazol-2-yl)methyl)-1,3,4-oxadiazol-2-yl)methyl)sulfamide] |

| Compound | IC50 (Endothelial lipase (EL)) | IC50 (hepatic lipase (HL)) |
| --- | --- | --- |
| COCCS(=O)(=O)C(c1nnc(CNS(N)(=O)=O)o1)c1nc2ccc(-c3ccccc3)cc2s1 (centres unmarked) [Example 119, N-[(5-{[(2-methoxyethyl)sulfonyl](6-phenyl-1,3-benzothiazol-2-yl)methyl}-1,3,4-oxadiazol-2-yl)methyl]sulfuric diamide] | < 10 nM | < 10 nM |
| COC(=O)NCCS(=O)(=O)C(c1nnc(CNS(N)(=O)=O)o1)c1nc2ccc(-c3ccccc3)cc2s1 (centres unmarked) [Example 122, methyl (2-(((6-phenyl-1,3-benzothiazol-2-yl)(5-((sulfamoylamino)methyl)-1,3,4-oxadiazol-2-yl)methyl)sulfonyl)ethyl)carbamate] | < 10 nM | < 10 nM |
| NS(=O)(=O)NCc1nnc(C(c2nc3ccc(-c4cccc(Cl)c4)cc3s2)S(=O)(=O)Cc2ccccc2)o1 (centres unmarked) [Example 129, N-((5-((benzylsulfonyl)(6-(3-chlorophenyl)-1,3-benzothiazol-2-yl)methyl)-1,3,4-oxadiazol-2-yl)methyl) sulfamide] | < 10 nM | < 10 nM |
